Results reported in patent US9890166B2, “Imidazopyrrolidine derivatives and their use in the treatment of disease” (NOVARTIS AG, priority 2013, dated 2018).

Legend:
BRD4 (His-Brd4(44-477)) = BRD4 (His-Brd4(44-477)) (Homo sapiens (Human), UniProt O60885); assay: TR-FRET in-vitro binding assay for BRD4; conditions: single determination or n ≧ 2 independent determinations, read-out: Biochemical IC50 BRD4
Procedure, shortened: (§1)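 His-tagged BRD2, BRD3 and BRD4 fragments tested by TR-FRET at 8 compound concentrations, with DMSO stocks at 10 mM. Read on EnVision after 35 min incubation at 30° C.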

[1] = target: nuclear BRD4-NUT foci in HCC2494 NUT midline carcinoma cells (Homo sapiens, UniProt O60885); assay: cell-based
K-562 cells = assay: Cell growth inhibition assay (CellTiter-Glo), K-562; conditions: for GI50: Homo sapiens, K562, read-out: K-562 GI50; for K-562 TGI: K-562 cells, total growth inhibition, CellTiter-Glo;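 for all read-outs here: cellular ATP measured by luminescence after 4 days of exposure, 3-fold dilution series from 10 µM, DMSO vehicle-treated cells define 100%, cell-free medium wells −100%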
MV-4-11 cells = assay: Cell growth inhibition assay (CellTiter-Glo), MV-4-11; conditions: for GI50: Homo sapiens, MV4-11, read-out: MV-4-11 GI50; for MV-4-11 TGI: MV-4-11 cells, total growth inhibition, CellTiter-Glo;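 for all read-outs here: cellular ATP luminescence after 4 days, 3-fold dilution series from 10 µM top dose, vehicle (0.1% DMSO) set to 100%, cell-free medium set to −100%, day 0 corrected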
BRD3 (His-Brd3(20-477)) = BRD3 (His-Brd3(20-477)) (Homo sapiens (Human), UniProt Q15059); assay: TR-FRET in-vitro binding assay for BRD3; conditions: single determination or n ≧ 2 independent determinations, read-out: Biochemical IC50 BRD3
Procedure, shortened: as §1

THP-1 cells = assay: Cell growth inhibition assay (CellTiter-Glo), THP-1; conditions: for GI50: Homo sapiens, THP-1, read-out: THP-1 GI50; for THP-1 TGI: THP-1 cells, total growth inhibition, CellTiter-Glo;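 for all read-outs here: viability read as cellular ATP luminescence after 4 days, 3-fold dilution series from 10 µM, DMSO vehicle-treated cells taken as 100%, cell-free medium wells as −100%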
BRD2 (His-Brd2(60-472)) = BRD2 (His-Brd2(60-472)) (Homo sapiens (Human), UniProt P25440); assay: TR-FRET in-vitro binding assay for BRD2; conditions: single determination or n ≧ 2 independent determinations, read-out: Biochemical IC50 BRD2
Procedure, shortened: as §1

[2] = target: CREBBP bromodomain (His-CREBBP(1081-1197)) (Homo sapiens (Human), UniProt Q92793); assay: AlphaScreen in-vitro binding assay for CREBBP; conditions: single determination or n ≧ 2 independent determinations, read-out: Biochemical IC50 CREBBP
Procedure, shortened: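 Detection used nickel-chelate acceptor plus streptavidin donor AlphaScreen beads, 1 h room temperature. Percent inhibition fitted by non-linear regression to IC50.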

Chain of BRD2 (His-Brd2(60-472)) (P25440 60-472): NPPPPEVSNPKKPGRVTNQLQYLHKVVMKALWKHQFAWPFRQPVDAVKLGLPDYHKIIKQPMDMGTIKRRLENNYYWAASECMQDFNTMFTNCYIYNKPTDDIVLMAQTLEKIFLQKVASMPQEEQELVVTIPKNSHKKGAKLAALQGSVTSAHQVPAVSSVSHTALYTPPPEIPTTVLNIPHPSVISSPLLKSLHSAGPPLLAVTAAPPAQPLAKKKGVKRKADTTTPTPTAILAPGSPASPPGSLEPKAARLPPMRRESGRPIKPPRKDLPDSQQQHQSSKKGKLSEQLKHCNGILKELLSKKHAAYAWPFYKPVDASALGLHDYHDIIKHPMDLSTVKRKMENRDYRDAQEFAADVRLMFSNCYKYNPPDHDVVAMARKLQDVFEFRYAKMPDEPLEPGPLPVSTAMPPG
Chain of CREBBP bromodomain (His-CREBBP(1081-1197)) (Q92793 1081-1197): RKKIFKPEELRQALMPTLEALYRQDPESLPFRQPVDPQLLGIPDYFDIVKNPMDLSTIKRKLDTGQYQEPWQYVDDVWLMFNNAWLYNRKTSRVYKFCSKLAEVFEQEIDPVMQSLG
Chain of BRD3 (His-Brd3(20-477)) (Q15059 20-477): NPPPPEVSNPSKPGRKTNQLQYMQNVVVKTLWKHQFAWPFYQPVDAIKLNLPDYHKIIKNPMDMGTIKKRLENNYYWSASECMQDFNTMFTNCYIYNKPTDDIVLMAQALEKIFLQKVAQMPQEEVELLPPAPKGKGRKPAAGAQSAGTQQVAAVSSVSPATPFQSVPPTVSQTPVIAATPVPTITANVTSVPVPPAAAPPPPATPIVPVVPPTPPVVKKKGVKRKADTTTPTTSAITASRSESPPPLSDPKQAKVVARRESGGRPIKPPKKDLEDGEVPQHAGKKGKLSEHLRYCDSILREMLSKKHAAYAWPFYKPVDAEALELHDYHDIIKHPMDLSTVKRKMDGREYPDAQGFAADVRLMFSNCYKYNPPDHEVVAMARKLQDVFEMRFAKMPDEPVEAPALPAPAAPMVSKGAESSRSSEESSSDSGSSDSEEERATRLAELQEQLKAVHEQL

| Compound | IC50 (BRD4 (His-Brd4(44-477))) | IC50 [1] | GI50 (K-562 cells) | K-562 TGI (K-562 cells) | GI50 (MV-4-11 cells) | MV-4-11 TGI (MV-4-11 cells) | IC50 (BRD3 (His-Brd3(20-477))) | GI50 (THP-1 cells) | THP-1 TGI (THP-1 cells) | IC50 (BRD2 (His-Brd2(60-472))) | IC50 [2] |
| --- | --- | --- | --- | --- | --- | --- | --- | --- | --- | --- | --- |
| CC(C)n1c(-c2cnoc2)nc2c1C(c1ccc(Cl)cc1)N(c1ccc(=O)n(C)c1)C2=O (centres unmarked) [Example 19, 6-(4-chlorophenyl)-1-isopropyl-2-(isoxazol-4-yl)-5-(1-methyl-6-oxo-1,6-dihydropyridin-3-yl)-5,6-dihydropyrrolo[3,4-d]imidazol-4(1H)-one] | 220 nM | > 10000 nM | – | – | – | – | – | – | – | – | – |
| Cc1noc(C)c1-c1nc2c(n1C(C)C)C(c1ccc(Cl)cc1)N(c1cc(C)c(=O)n(C)c1)C2=O (centres unmarked) [Example 27, 6-(4-chlorophenyl)-5-(1,5-dimethyl-6-oxo-1,6-dihydropyridin-3-yl)-2-(3,5-dimethylisoxazol-4-yl)-1-isopropyl-5,6-dihydropyrrolo[3,4-d]imidazol-4(1H)-one] | 120 nM | 279 nM | 861 nM | >10000 nM | 82.7 nM | 142 nM | 96 nM | 195 nM | 433 nM | 140 nM | – |
| COc1ccc(-c2nc3c([nH]2)C(c2ccc(Cl)cc2)N(c2cc(OC)c4nnc(C)n4c2)C3=O)cn1 (centres unmarked) [Example 125, 6-(4-chlorophenyl)-5-(8-methoxy-3-methyl-[1,2,4]triazolo[4,3-a]pyridin-6-yl)-2-(6-methoxypyridin-3-yl)-5,6-dihydropyrrolo[3,4-d]imidazol-4(1H)-one] | – | 1950 nM | 5290 nM | >10000 nM | 809 nM | 1120 nM | – | 2140 nM | 3920 nM | – | 34900 nM |
| COc1ncccc1-c1nc2c([nH]1)[C@@H](c1ccc(Cl)cc1)N(c1cc(C)c3nnc(C(F)F)n3c1)C2=O [Example 153, (R)-6-(4-chlorophenyl)-5-(3-(difluoromethyl)-8-methyl-[1,2,4]triazolo[4,3-a]pyridin-6-yl)-2-(2-methoxypyridin-3-yl)-5,6-dihydropyrrolo[3,4-d]imidazol-4(1H)-one] | 13 nM | – | 95 nM | >10000 nM | 25.6 nM | 38.6 nM | 23 nM | 18.4 nM | 44.3 nM | 25 nM | 28900 nM |
| COc1ccc(-c2nc3c(n2C(C)C)[C@@H](c2ccc(Cl)cc2)N(c2cc(C)c4nnn(C)c4n2)C3=O)cn1 [Example 154, (R)-6-(4-chlorophenyl)-5-(3,7-dimethyl-3H-[1,2,3]triazolo[4,5-b]pyridin-5-yl)-1-isopropyl-2-(6-methoxypyridin-3-yl)-5,6-dihydropyrrolo[3,4-d]imidazol-4(1H)-one] | 19 nM | – | 21.4 nM | >10000 nM | 3.64 nM | 8.305 nM | 19 nM | 4.68 nM | 12.2 nM | 42 nM | > 37000 nM |
| COc1ncccc1-c1nc2c([nH]1)[C@@H](c1ccc(Cl)cc1)N(c1cc(C)c(=O)n(C)c1)C2=O [Example 156, (R)-6-(4-chlorophenyl)-5-(1,5-dimethyl-6-oxo-1,6-dihydropyridin-3-yl)-2-(2-methoxypyridin-3-yl)-5,6-dihydropyrrolo[3,4-d]imidazol-4(1H)-one] | 25 nM | – | 122 nM | >10000 nM | 25.4 nM | 51.35 nM | 29.5 nM | 43.4 nM | 99 nM | 32 nM | 260 nM |
| COc1ncccc1-c1nc2c(n1C(C)C)[C@@H](c1ccc(Cl)cc1)N(c1cc(C)c3nnn(C)c3n1)C2=O [Example 158, (R)-6-(4-chlorophenyl)-5-(3,7-dimethyl-3H-[1,2,3]triazolo[4,5-b]pyridin-5-yl)-1-isopropyl-2-(2-methoxypyridin-3-yl)-5,6-dihydropyrrolo[3,4-d]imidazol-4(1H)-one] | < 11 nM | – | 8.73 nM | >10000 nM | 1.64 nM | 3.29 nM | < 11 nM | 2 nM | 5.065 nM | 16 nM | > 37000 nM |
| COc1ncc(-c2nc3c(n2C(C)C)[C@@H](c2ccc(Cl)cc2)N(c2cc(C)c4nnc(C(F)F)n4c2)C3=O)c(OC)n1 [Example 159, (R)-6-(4-chlorophenyl)-5-(3-(difluoromethyl)-8-methyl-[1,2,4]triazolo[4,3-a]pyridin-6-yl)-2-(2,4-dimethoxypyrimidin-5-yl)-1-isopropyl-5,6-dihydropyrrolo[3,4-d]imidazol-4(1H)-one] | < 11 nM | – | 40.5 nM | >10000 nM | 5.86 nM | 15.6 nM | 12 nM | 12.1 nM | 31.5 nM | 16 nM | 12600 nM |
| Cc1cc(N2C(=O)c3nc(C4=CCOCC4)n(C(C)C)c3C2c2ccc(Cl)cc2)nn2c(C(F)F)nnc12 (centres unmarked) [Example 161, 6-(4-chlorophenyl)-5-(3-(difluoromethyl)-8-methyl-[1,2,4]triazolo[4,3-b]pyridazin-6-yl)-2-(3,6-dihydro-2H-pyran-4-yl)-1-isopropyl-5,6-dihydropyrrolo[3,4-d]imidazol-4(1H)-one] | 15 nM | – | 75.2 nM | >10000 nM | 5.99 nM | 13.65 nM | 16 nM | 6.09 nM | 13.65 nM | 30 nM | > 37000 nM |
| Cc1cc(N2C(=O)c3nc(C4=CCOCC4)[nH]c3[C@H]2c2ccc(Cl)cc2)cn2c(C)nnc12 [Example 167, (R)-6-(4-chlorophenyl)-2-(3,6-dihydro-2H-pyran-4-yl)-5-(3,8-dimethyl-[1,2,4]triazolo[4,3-a]pyridin-6-yl)-5,6-dihydropyrrolo[3,4-d]imidazol-4(1H)-one] | 35 nM | – | 537 nM | >10000 nM | 33.6 nM | 57.85 nM | 53 nM | 103 nM | 188.5 nM | 63 nM | 1650 nM |
| COc1ncccc1-c1nc2c(n1C(C)C)[C@@H](c1ccc(Cl)cc1)N(c1cc(C)c3nnc(C(F)F)n3n1)C2=O [Example 168, (R)-6-(4-chlorophenyl)-5-(3-(difluoromethyl)-8-methyl-[1,2,4]triazolo[4,3-b]pyridazin-6-yl)-1-isopropyl-2-(2-methoxypyridin-3-yl)-5,6-dihydropyrrolo[3,4-d]imidazol-4(1H)-one] | < 11 nM | – | 30.8 nM | >10000 nM | 2.99 nM | 7.7 nM | < 11 nM | 5.65 nM | 18.9 nM | 17 nM | > 37000 nM |
| Cc1cc(N2C(=O)c3nc(C4CCN(C)CC4)n(C(C)C)c3C2c2ccc(Cl)cc2)nn2c(C)nnc12 (centres unmarked) [Example 169, 6-(4-chlorophenyl)-5-(3,8-dimethyl-[1,2,4]triazolo[4,3-b]pyridazin-6-yl)-1-isopropyl-2-(1-methylpiperidin-4-yl)-5,6-dihydropyrrolo[3,4-d]imidazol-4(1H)-one] | 19 nM | – | 55.9 nM | >10000 nM | 1.94 nM | 5.325 nM | 33 nM | 11.5 nM | 32.95 nM | 25 nM | > 37000 nM |
